In patent US20130072523A1, “ANALOGUES FOR THE TREATMENT OR PREVENTION OF FLAVIVIRUS INFECTIONS” (VERTEX PHARMACEUTICALS INCORPORATED, priority 2009, published 2013):

Test system: HCV 1b genotype
Assay: Cell-based luciferase reporter HCV (Ib) RNA replication assay (Huh-ET replicon cells)
Conditions: Hepatitis C virus, 96 h; HCV 1b genotype replicon, 4 days incubation, luciferase readout
From the text: Cell-Based Luciferase Reporter HCV (Ib) RNA Replication Assay Cell Culture
Replicon cell lines Huh-5.2 are derived from the Huh-7 hepatocarcinoma cell line are maintained in culture as generally described in Krieger, N; Lohmann, V; Bartenschlager, R. Enhancement of hepatitis C virus RNA replication by cell culture-adaptive mutations. J. Virol. 2001, 75, 4614-4624. The Huh-5.2 cells contain the highly cell culture-adapted replicon I389 Luc-ubi-neo/NS3-375.1 construct that carries, in addition to the neomycin gene, an integrated copy to the firefly luciferase gene (Krieger, N; Lohmann, V; Bartenschlager, R. Enhancement of hepatitis C virus RNA replication by cell culture-adaptive mutations. J. Virol. 2001, 75, 4614-4624). This cell line allows measurement of HCV RNA replication and translation by measuring luciferase activity. It has been previously shown that the luciferase activity tightly follows the replicon RNA level in these cells (Krieger, N; Lohmann, V; Bartenschlager, R. Enhancement of hepatitis C virus RNA replication by cell culture-adaptive mutations. J. Virol. 2001, 75, 4614-4624). The Huh-ET cell line has the same features as those mentioned for Huh-5.2 cell line, except that ET cells are more robust and contain an adaptative mutation in the HCV NS4B gene instead of NS5A. Both cell lines are maintained in cultures at a sub-confluent level (<85%) as the level of replicon RNA is highest in actively proliferating cells. The culture media used for cell passaging consist of DMEM (Gibco BRL Laboratories, Mississauga, ON, Canada) supplemented with 10% foetal bovine serum with 1% penicilin/streptomycin, 1% glutamine, 1% sodium pyruvate, 1% non-essential amino acids, and 180 μg/ml of G418 final concentration. Cells are incubated at 37° C., in an atmosphere of 5% CO2 and passaged twice a week to maintain sub-confluence.
Approximately 3000 viable Huh-ET cells (100 μl) are plated per well in a white opaque 96-well microtiter plate. The cell culture media used for the assay is the same as described above except that it contains no G418 and no phenol red. After an incubation period of 3-4 hours at 37° C. in a 5% CO2 incubator, compounds (100 μl) are added at various concentrations. Cells are then further incubated for 4 days at 37° C. in a 5% CO2 incubator. Thereafter, the culture media is removed and cells are lysed by the addition of 95 μL of the luciferase buffer (luciferin substrate in buffered detergent). Cell lysates are incubated at room temperature and protected from direct light for at least 10 minutes. Plates are read for luciferase counts using a luminometer (Wallac MicroBeta Trilux, Perkin Elmer™, MA, USA).
The 50% inhibitory concentrations (IC50s) for inhibitory effect are determined from dose response curves using eleven concentrations per compound in duplicate. Curves are fitted to data points using nonlinear regression analysis, and IC50s are interpolated from the resulting curve using GraphPad Prism software, version 2.0 (GraphPad Software Inc., San Diego, Calif., USA).
EC50 ranges are presented in micromolar as follows: μM+++<=0.005<++<=5.0<+.

Compound | IC50 [nM]
COC(=O)N[C@H](C(=O)N1C[C@@H](C)C[C@H]1c1ncc(C#Cc2ccc(C#Cc3[nH]c([C@@H]4C[C@H](C)CN4C(=O)[C@@H](NC(=O)OC)C(C)C)nc3I)cc2)[nH]1)C(C)C [Compound 20] | ≤ 5
COC(=O)N[C@H](C(=O)N1C[C@@H](OC)C[C@H]1c1ncc(C#Cc2ccc(C#Cc3cnc([C@@H]4C[C@H](OC)CN4C(=O)[C@@H](NC(=O)OC)C(C)C)[nH]3)cc2)[nH]1)C(C)C [Compound 68] | ≤ 5
COC(=O)N[C@H](C(=O)N1CC(C)(C)C[C@H]1c1nc(C)c(C#Cc2ccc(C#Cc3[nH]c([C@@H]4CC(C)(C)CN4C(=O)[C@@H](NC(=O)OC)C(C)C)nc3C)cc2)[nH]1)C(C)C [Example 30] | ≤ 5
COC(=O)N[C@H](C(=O)N1C[C@@H](C)C[C@H]1c1nc(C)c(C#Cc2ccc(C#Cc3[nH]c([C@@H]4C[C@H](C)CN4C(=O)[C@@H](NC(=O)OC)C(C)C)nc3C)cc2)[nH]1)C(C)C [Compound 18] | ≤ 5
COC(=O)N[C@@H](C(=O)N1C[C@@H](C)C[C@H]1c1ncc(C#Cc2ccc(C#Cc3cnc([C@@H]4C[C@H](C)CN4C(=O)[C@H](NC(=O)OC)C(C)C)[nH]3)cc2)[nH]1)C(C)C [Compound 32] | 5 to 5000
COC(=O)N[C@H](C(=O)N1C[C@H](C)C[C@H]1c1nc(C)c(C#Cc2ccc(C#Cc3[nH]c([C@@H]4C[C@@H](C)CN4C(=O)[C@@H](NC(=O)OC)C(C)C)nc3C)cc2)[nH]1)C(C)C [Compound 28] | ≤ 5
COC(=O)N[C@H](C(=O)N1C[C@@H](C)C[C@H]1c1nc(C#Cc2ccc(C#Cc3c[nH]c([C@@H]4C[C@H](C)CN4C(=O)[C@@H](NC(=O)OC)[C@@H](C)OC)n3)cc2)c[nH]1)[C@@H](C)OC [Compound 7] | ≤ 5
COC(=O)N[C@H](C(=O)N1CCC[C@H]1c1ncc(C#Cc2ccc(C#Cc3cnc([C@@H]4CCCN4C(=O)[C@@H](NC(=O)OC)C(C)C)[nH]3)s2)[nH]1)C(C)C [Compound 3] | ≤ 5
COC(=O)N[C@H](C(=O)N1C[C@@H](C)C[C@H]1c1nc(C#Cc2ccc3sc(C#Cc4c[nH]c([C@@H]5C[C@H](C)CN5C(=O)[C@@H](NC(=O)OC)C(C)C)n4)cc3c2)c[nH]1)C(C)C [Compound 61] | ≤ 5
COC(=O)N[C@H](C(=O)N1C[C@@H](C)C[C@H]1c1nc(C#Cc2ccc3nc(C#Cc4c[nH]c([C@@H]5C[C@H](C)CN5C(=O)[C@@H](NC(=O)OC)C(C)C)n4)ccc3c2)c[nH]1)C(C)C [Compound 55] | ≤ 5
COC(=O)N[C@H](C(=O)N1C[C@@H](C)C[C@H]1c1nc(-c2cc3sc(-c4c[nH]c([C@@H]5C[C@H](C)CN5C(=O)[C@@H](NC(=O)OC)C(C)C)n4)cc3s2)c[nH]1)C(C)C [Compound 26] | ≤ 5
COC(=O)N[C@H](C(=O)N1C[C@H](C)C[C@H]1c1nc(C#Cc2ccc(C#Cc3c[nH]c([C@@H]4C[C@@H](C)CN4C(=O)[C@@H](NC(=O)OC)C(C)C)n3)cc2)c[nH]1)C(C)C [Compound 9] | ≤ 5
C[C@H]1C[C@@H](c2ncc(C#Cc3ccc(C#Cc4cnc([C@@H]5C[C@H](C)CN5C(=O)OC(C)(C)C)[nH]4)cc3)[nH]2)N(C(=O)OC(C)(C)C)C1 [Compound 23] | 5 to 5000
COC(=O)N[C@H](C(=O)N1CCC[C@H]1c1nc(C#CC#Cc2c[nH]c([C@@H]3CCCN3C(=O)[C@@H](NC(=O)OC)C(C)C)n2)c[nH]1)C(C)C [Compound 15] | 5 to 5000
COC(=O)N[C@H](C(=O)N1C[C@@H](C)C[C@H]1c1nc(C#Cc2ccc3cc(C#Cc4c[nH]c([C@@H]5C[C@H](C)CN5C(=O)[C@@H](NC(=O)OC)C(C)C)n4)sc3c2)c[nH]1)C(C)C [Compound 67] | ≤ 5
COC(=O)N(C)[C@H](C(=O)N1C[C@@H](C)C[C@H]1c1ncc(C#Cc2ccc(C#Cc3cnc([C@@H]4C[C@H](C)CN4C(=O)[C@H](C(C)C)N(C)C(=O)OC)[nH]3)cc2)[nH]1)C(C)C [Compound 11] | ≤ 5
COC(=O)N[C@H](C(=O)N1C[C@@H](C)C[C@H]1c1ncc(C#Cc2cc(C)c(C#Cc3cnc([C@@H]4C[C@H](C)CN4C(=O)[C@@H](NC(=O)OC)C(C)C)[nH]3)cc2C)[nH]1)C(C)C [Compound 8] | ≤ 5
